Measured values reported in patent US8609725B2, “Method of using beta-hydroxy-beta-methylbutyrate for reducing tumor growth rate” (Abbott Laboratories, priority 2004, dated 2013).

Columns and labels:
[1] = system: p42/44 MAPK (ERK1, ERK2); assay: PIF-induced phosphorylation of ERK 1/2 (p42/44 MAPK) in murine myotubes; format: cell-based
Experimental: (§1) For Western blot analysis, cytosolic protein (2 to 5 μg) obtained for the above assay were resolved on 10% SDS-PAGE and transferred to 0.45 μm nitrocellulose membrane, which had been blocked with 5% Marvel in PBS, at 4° C. overnight. The primary antibodies were used at a dilution of 1:100 (anti-actin and PKCα); 1:500 (anti-ERK1 and 2); 1:1000 (anti-20S proteasome β-subunit and I-κBα); 1:1500 (anti-20S proteasome α-subunit) or 1:5000 (anti-p42), while the secondary antibodies were used at a dilution of 1:2000. Incubation was carried out for 2 h at room temperature and development was by ECL. Loading was quantitated by actin concentration.
The in vitro study described in Example III above also evaluated the effect of HMB on molecules that are key mediators in the pathway of inflammation. This experiment was conducted as described in Example III.

[2] = system: β subunits of the proteasome; assay: 'Chymotrypsin-like' enzyme activity in PIF-treated murine myotubes; format: cell-based
Experimental: The functional activity of the β subunits of the proteasome was determined as the ‘chymotrypsin-like’ enzyme activity obtained fluorimetrically according to the method of Orino, E. et al. ATP-dependent reversible association of proteasomes with multiple protein components to form 26S complexes that degrade ubiquitinated proteins in human HL-60 cells. FEBS Lett., 284: 206-210, 1991. Myotubes were exposed to PIF for 24 h with or without EPA or HMB added 2 h prior to PIF and enzyme activity was determined in a supernatant fraction (Whitehouse, A. S. et al. Increased expression of the ubiquitin-proteasome pathway in murine myotubes by proteolysis-inducing factor (PIF) is associated with activation of the transcription factor NF-κB. Br. J. Cancer, 89: 1116-1122, 2003) by the release of aminomethyl coumarin (AMC) from succinyl-LLVY-AMC (0.1 mM) in the presence or absence of the specific proteasome inhibitor lactacystin (10 μM) (Fenteany, G. et al. Lactacystin, proteasome function and cell fate. J. Biol. Chem., 273: 8545-8548, 1998). Only lactacystin suppressible activity was considered to be proteasome specific. Activity was adjusted for the protein concentration of the sample, determined using the Bradford assay (Sigma Chemical Co., Dorset, United Kingdom) using bovine serum albumin as standard.

[3] = system: ubiquitin-conjugating enzyme, E214k; assay: Western blotting of E214k in gastrocnemius muscle of MAC16 mice; format: in vivo, NMRI mice; settings: HMB 0.25 g/kg, EPA 0.6 g/kg or combination, 3 days
Experimental: For Western blotting samples of soleus muscle cytosolic protein (2 to 5 μg), obtained from the above assay, were resolved on 10% SDS-PAGE and transferred to 0.45 μm nitrocellulose membrane (HybondTM, Amersham Life Science Products, Bucks, United Kingdom), which had been blocked with 5% Marvel in PBS. The primary antibodies for MSS1 and p42 were used at a dilution of 1:5000, for 20S proteasome α-subunits at 1:1500 and for β-subunits at 1:1000, while the antibody for […] was used at a dilution of 1:500. The secondary antibodies were used at a dilution of 1:2000. Mouse monoclonal antibodies to 20S proteasome subunits a 1, 2, 3, 5, 6 and 7 (clone MCP 231), 20S proteasome subunit β3 (HC10), 19S regulator ATPase subunit […]1; clone MSS1-104) and 19S regulator ATPase subunit Rpt 4 ([…], p42; clone p42-23) were purchased from Affiniti Research Products, Exeter, United Kingdom. Rabbit polyclonal antisera to ubiquitin-conjugating enzyme E2 (anti-UBC2 antibody) was a gift from Dr. Simon Wing, McGill University, Montreal, Quebec, Canada. Peroxidase-conjugated goat anti-rabbit and rabbit anti-mouse secondary antibodies were from Dako Ltd., Cambridge, United Kingdom. Incubation was carried out for 2 h at room temperature, and developed by chemiluminescence (ECL; Amersham).

[4] = system: 20S proteasome α-subunits; assay: Western blotting of 20S proteasome α-subunits in gastrocnemius muscle of MAC16 mice; format: in vivo, NMRI mice
[5] = system: rats and chicks; settings: cited from earlier work
[6] = system: MSS1, an ATPase subunit of the 19S proteasome regulatory complex; assay: Western blotting of MSS1 in gastrocnemius muscle of MAC16 mice; format: in vivo, NMRI mice
[7] = system: proteasome 20S α subunits, β subunits and p42; assay: Western blot of PIF-induced proteasome subunit expression in C2C12 myotubes; format: cell-based, murine; settings: 50 μM; PIF at 4.2 and 10 nM
Experimental: as §1

[8] = system: proteasome; assay: Functional proteasome 'chymotrypsin-like' enzyme activity in gastrocnemius muscle of MAC16 mice; format: in vivo, NMRI mice; settings: HMB 0.25 g/kg, EPA 0.6 g/kg or combination, 3 days
Experimental: Functional proteasome activity was determined by measuring the ‘chymotrypsin-like’ enzyme activity, the predominant proteolytic activity of the β-subunits of the proteasome according to the method of Orino, E. et al. ATP-dependent reversible association of proteasomes with multiple protein components to form 26S complexes that degrade ubiquitinated proteins in human HL-60 cells. FEBS Lett., 284: 206-210, 1991. Muscles were rinsed with ice-cold PBS, minced and sonicated in 20 mM Tris. HCl, pH 7.5, 2 mM ATP, 5 mM MgCl2 and 1 mM DTT. The sonicate was then centrifuged for 10 min at 18,000 g, at 4° C. and the supernatant was used to determine ‘chymotrypsin-like’ enzyme activity by the release of aminomethyl coumarin (AMC) from the fluorogenic substrate succinyl-LLVY-AMC. Activity was measured in the absence and presence of the specific proteasome inhibitor lactacystin (10 μM). Only lactacystin suppressible activity was considered to be proteasome specific.

[9] = system: phospholipase A (PLA); assay: Arachidonic acid release / PLA activation; format: cell-based, murine; settings: mechanism statement
Experimental: For measurement of arachidonic acid release, myotubes in six-well multi dishes containing 2 ml DMEM with 2% HS were labeled for 24 h with 10 μM arachidonic acid (containing 1 μCi of [^3H] arachidonate/ml) (Smith, H. et al. Effect of a cancer cachectic factor on protein synthesis/degradation in murine C2C12 myoblasts: Modulation by eicosapentaenoic acid. Cancer Res., 59: 5507-5513, 1999). Cells were then washed extensively with PBS to remove traces of unincorporated [^3H] arachidonate and either EPA or HMB was added 2 h prior to PIF. After a further 24 h 1 ml of medium was removed to determine the radioactivity released.

[10] = HMB 0.25 g/kg, EPA 0.6 g/kg or combination, 3 days
[11] = avg., 1996 abstract, normal rats and chicks

attenuation of PIF-induced increase in 'chymotrypsin-like' enzyme activity ([2]; 25 μM HMB): completely attenuated
attenuation of PIF-induced increase in 'chymotrypsin-like' enzyme activity ([2]; 50 μM): completely attenuated
activation of PLA or release of AA [9]: not preventing
SMILES: CC(C)(O)CC(=O)O [HMB, beta-hydroxy-beta-methylbutyric acid]
attenuation of PIF-induced phosphorylation of p42/44 ([1]; 25 μM HMB): not HMB at 25 μM
attenuation of PIF-induced phosphorylation of p42/44 ([1]; 50 μM): completely attenuated
expression of E214k [3]: reduced
expression of 20S proteasome α-subunits [4, 10]: attenuated
reduction of protein expression of 20S α-subunits ([4]; summary of Examples I-IV): at least 50%
change of protein breakdown [5, 11]: −18%
stimulation of protein synthesis [5, 11]: 6%
effect on protein synthesis ([5]; later paper (2000), same model in rats and chicks): no significant effect
expression of MSS1 [6, 10]: attenuated
reduction of protein expression of MSS1 ([6]; summary of Examples I-IV): at least 50%
attenuation of PIF-increased expression of proteasome 20S α subunits, β subunits and p42 [7]: attenuated
functional proteasome activity ('chymotrypsin-like' enzyme activity) [8]: attenuated
